Reference: patent US5217960A, “Erythromycin derivatives” (priority 1991, dated 1993)
In brackets after ≈: the same amount, converted by molar mass. Like-named read-outs stand apart in the source and are kept apart here.

Legend:
Assay type in all cases: cell-based
[1] = tested on: STREPTOCOCCUS PYOGENES 2548 INDUC; experiment: In vitro antibacterial activity, agar dilution MIC; details: 24 h
ESCHERICHIA COLI JUHL = experiment: microbe, parasite or virus in culture; details: E. coli JUHL, BHI agar, 35-37° C., 20 to 24 hours, read-out: MIC
[2] = tested on: STREPTOCOCCUS BOVIS A5169; experiment: In vitro antibacterial activity, agar dilution MIC; details: 24 h
[3] = tested on: STAPHYLOCOCCUS AUREUS NCTC 10649; experiment: In vitro antibacterial activity, agar dilution MIC
[4] = tested on: PSEUDOMONAS AERUGINOSA A5007; experiment: In vitro antibacterial activity, agar dilution MIC; details: P. aeruginosa A5007, BHI agar, 35-37° C., 20 to 24 hours
ESCHERICHIA COLI KNK 437 = experiment: microbe, parasite or virus in culture; details: E. coli KNK 437, BHI agar, 35-37° C., 20 to 24 hours
[5] = tested on: PSEUDOMONAS AERUGINOSA K799/WT; experiment: In vitro antibacterial activity, agar dilution MIC; details: P. aeruginosa K799/WT, BHI agar, 35-37° C., 20 to 24 hours
M[…] ATCC 4698 = experiment: In vitro antibacterial activity, agar dilution MIC; details: Micrococcus luteus, ATCC4698, 24 h
Protocol: (§1) Representative compounds of the present invention were assayed in vitro for antibacterial activity as follows: Twelve petri dishes containing successive aqueous dilutions of the test compound mixed with 10 ml of sterilized Brain Heart Infusion (BHI) agar (Difco 0418-01-5) were prepared. Each plate was inoculated with 1:100 (or 1:10 for slow-growing strains, such as Micrococcus and Streptococcus) dilutions of up to 32 different microorganisms, using a Steers replicator block. The inoculated plates were incubated at 35°-37° C. for 20 to 24 hours. In addition, a control plate, using BHI agar containing no test compound, was prepared and incubated at the beginning and end of each test.
(§2) An additional plate containing a compound having known susceptibility patterns for the organisms being tested and belonging to the same antibiotic class as the test compound was also prepared and incubated as a further control, as well as to provide test-to-test comparability. Erythromycin A was used for this purpose.
(§3) After incubation, each disk was read. The minimum inhibitory concentration (MIC) was defined as the lowest concentration of drug yielding no growth, a slight haze, or sparsely isolated colonies on the inoculum spot as compared to the growth control. The results of this assay, shown below in Tables 1 and 2, support the conclusion that the compounds of the invention are effective antibacterial agents.

M[…] ATCC 9341 = experiment: In vitro antibacterial activity, agar dilution MIC; details: Micrococcus luteus, ATCC9341, 24 h
Protocol: as §1, §2, §3

[6] = tested on: PSEUDOMONAS AERUGINOSA K799/61; experiment: In vitro antibacterial activity, agar dilution MIC; details: P. aeruginosa K799/61, BHI agar, 35-37° C., 20 to 24 hours, read-out: MIC
Protocol: as §1, §2, §3

EN[…] ATCC 8043 = experiment: In vitro antibacterial activity, agar dilution MIC; details: Enterococcus faecium, ATCC8043, 24 h
Protocol: as §1, §2, §3

STAPHYLOCOCCUS AUREUS 45 = experiment: In vitro antibacterial activity, agar dilution MIC
PSEUDOMONAS CEPACIA 296I = experiment: In vitro antibacterial activity, agar dilution MIC; details: Burkholderia cepacia; P. cepacia 296I; BHI agar, 35-37° C., 20 to 24 hours; read-out: MIC
[7] = tested on: STAPHYLOCOCCUS AUREUS 1775; experiment: In vitro antibacterial activity, agar dilution MIC; details: S. aureus 1775, BHI agar, 35-37° C., 20 to 24 hours, read-out: MIC
[8] = tested on: ENTEROBACTER AEROGENES ATCC 13048; experiment: In vitro antibacterial activity, agar dilution MIC; details: Klebsiella aerogenes, ATCC13048; E. aerogenes ATCC 13048; BHI agar, 35-37° C., 20 to 24 hours; read-out: MIC
[9] = tested on: PSEUDOMONAS AERUGINOSA BMH10; experiment: In vitro antibacterial activity, agar dilution MIC; details: 24 h
[10] = tested on: STREPTOCOCCUS PYOGENES 930 CONST; experiment: In vitro antibacterial activity, agar dilution MIC; details: S. pyogenes 930 CONST, BHI agar, 35-37° C., 20 to 24 hours, read-out: MIC
ESCHERICHIA COLI DC-2 = experiment: In vitro antibacterial activity, agar dilution MIC; details: E. coli DC-2, BHI agar, 35-37° C., 20 to 24 hours, read-out: MIC
[11] = tested on: STAPHYLOCOCCUS AUREUS A5177; experiment: In vitro antibacterial activity, agar dilution MIC; details: S. aureus A5177, BHI agar, 35-37° C., 20 to 24 hours, read-out: MIC
[12] = tested on: ACINETOBACTER CALCOACETICUS CMX 669; experiment: In vitro antibacterial activity, agar dilution MIC; details: A. calcoaceticus CMX 669, BHI agar, 35-37° C., 20 to 24 hours
[13] = tested on: PROVIDENCIA STUARTII CMX 640; experiment: microbe, parasite or virus in culture; details: P. stuartii CMX 640, BHI agar, 35-37° C., 20 to 24 hours
ESCHERICHIA COLI H560 = experiment: In vitro antibacterial activity, agar dilution MIC; details: 24 h
[14] = tested on: STAPHYLOCOCCUS AUREUS ATCC 6538P; experiment: In vitro antibacterial activity, agar dilution MIC; details: ATCC6538P, 24 h
ESCHERICHIA COLI SS = experiment: In vitro antibacterial activity, agar dilution MIC
[15] = tested on: STAPHYLOCOCCUS EPIDERMIDIS 3519; experiment: microbe, parasite or virus in culture; details: 24 h
[16] = tested on: STAPHYLOCOCCUS AUREUS 642A; experiment: In vitro antibacterial activity, agar dilution MIC
[17] = tested on: KLEBSIELLA PNEUMONIAE ATCC 8045; experiment: In vitro antibacterial activity, agar dilution MIC
STR[…] EES61 = experiment: In vitro antibacterial activity, agar dilution MIC; details: Streptococcus pyogenes, 24 h
Protocol: as §1, §2
(§4) After incubation, each disk was read. The minimum inhibitory concentration (MIC) was defined as the lowest concentration of drug yielding no growth, a slight haze, or sparsely isolated colonies on the inoculum spot as compared to the growth control.

STR[…] 508 = experiment: In vitro antibacterial activity, agar dilution MIC; details: Streptococcus agalactiae, 24 h
Protocol: as §1, §2, §4

[18] = tested on: STAPHYLOCOCCUS AUREUS CMX 553; experiment: In vitro antibacterial activity, agar dilution MIC; details: 24 h

For `CC[C@H]1OC(=O)[C@H](C)[C@@H](O[C@H]2C[C@@](C)(OC)[C@@H](O)[C@H](C)O2)[C@H](C)[C@@H](O[C@@H]2O[C@H](C)C[C@H](N(C)C)[C@H]2O)[C@](C)(O)C[C@@H](C)[C@@H](N(C)C)[C@H](C)[C@@H](O)[C@@]12CO2` [Compound 8, (9R)-9-deoxo-9-(N,N-dimethylamino)-12,21-epoxyerythromycin A], the MIC [1] was 6.2 µg/mL (≈ 8.15 µM), the MIC (ESCHERICHIA COLI JUHL) was 100 µg/mL (≈ 131 µM) and the MIC [2] was 0.02 µg/mL (≈ 0.0263 µM). For the same molecule, the MIC ([3]; NCTC10649, S. aureus NCTC 10649, BHI agar, 35-37° C., 20 to 24 hours, read-out: MIC) was 0.78 µg/mL (≈ 1.02 µM), the MIC [4] was greater than 100 µg/mL and the MIC (ESCHERICHIA COLI KNK 437) was 50 µg/mL (≈ 65.7 µM). It also gave an MIC [5] greater than 100 µg/mL, an MIC (M[…] ATCC 4698) of 0.1 µg/mL (≈ 0.131 µM) and an MIC (M[…] ATCC 9341) of 0.1 µg/mL (≈ 0.131 µM). For the same molecule, the MIC [6] was 12.5 µg/mL (≈ 16.4 µM), the MIC (EN[…] ATCC 8043) was 0.02 µg/mL (≈ 0.0263 µM) and the MIC (STAPHYLOCOCCUS AUREUS 45; S. aureus 45, BHI agar, 35-37° C., 20 to 24 hours, read-out: MIC) was 0.78 µg/mL (≈ 1.02 µM). It also gave an MIC (PSEUDOMONAS CEPACIA 296I) greater than 100 µg/mL, an MIC [7] greater than 100 µg/mL and an MIC [8] greater than 100 µg/mL. It also gave an MIC [9] greater than 100 µg/mL, an MIC [10] greater than 100 µg/mL and an MIC (ESCHERICHIA COLI DC-2) of 50 µg/mL (≈ 65.7 µM). For the same molecule, the MIC [11] was 50 µg/mL (≈ 65.7 µM), the MIC [12] was 12.5 µg/mL (≈ 16.4 µM) and the MIC [13] was greater than 100 µg/mL. For the same molecule, the MIC (ESCHERICHIA COLI H560) was 25 µg/mL (≈ 32.9 µM), the MIC [14] was 0.78 µg/mL (≈ 1.02 µM) and the MIC (ESCHERICHIA COLI SS; E. coli SS, BHI agar, 35-37° C., 20 to 24 hours, read-out: MIC) was 0.39 µg/mL (≈ 0.512 µM). For the same molecule, the MIC [15] was 0.39 µg/mL (≈ 0.512 µM), the MIC ([16]; S. aureus 642A, BHI agar, 35-37° C., 20 to 24 hours, read-out: MIC) was 1.56 µg/mL (≈ 2.05 µM) and the MIC ([17]; ATCC8045, K. pneumoniae ATCC 8045, BHI agar, 35-37° C., 20 to 24 hours, read-out: MIC) was 100 µg/mL (≈ 131 µM).
`CC[C@H]1OC(=O)[C@H](C)[C@@H](O[C@H]2C[C@@](C)(OC)[C@@H](O)[C@H](C)O2)[C@H](C)[C@@H](O[C@@H]2O[C@H](C)C[C@H](N(C)C)[C@H]2O)[C@](C)(O)C[C@@H](C)[C@@H](N)[C@H](C)[C@@H](O)[C@@]1(O)CNCc1ccccc1` [Compound 14, (9R)-9-amino-21-benzylamino-9-deoxo-erythromycin A] gave an MIC [1] of 3.1 µg/mL (≈ 3.69 µM), an MIC (ESCHERICHIA COLI JUHL) of 100 µg/mL (≈ 119 µM) and an MIC [2] of 0.2 µg/mL (≈ 0.238 µM). For the same molecule, the MIC ([3]; NCTC10649, 24 h) was 3.1 µg/mL (≈ 3.69 µM), the MIC [4] was greater than 100 µg/mL and the MIC (ESCHERICHIA COLI KNK 437) was 100 µg/mL (≈ 119 µM). It also gave an MIC [5] greater than 100 µg/mL, an MIC (M[…] ATCC 4698) of 3.1 µg/mL (≈ 3.69 µM) and an MIC (M[…] ATCC 9341) of 0.78 µg/mL (≈ 0.928 µM). The MIC [6] was 25 µg/mL (≈ 29.8 µM), the MIC (EN[…] ATCC 8043) was 3.1 µg/mL (≈ 3.69 µM) and the MIC (STAPHYLOCOCCUS AUREUS 45; 24 h) was 6.2 µg/mL (≈ 7.38 µM). For the same molecule, the MIC (PSEUDOMONAS CEPACIA 296I) was greater than 100 µg/mL, the MIC [7] was greater than 100 µg/mL and the MIC [8] was greater than 100 µg/mL. For the same molecule, the MIC [9] was 50 µg/mL (≈ 59.5 µM), the MIC [10] was greater than 100 µg/mL and the MIC (ESCHERICHIA COLI DC-2) was 100 µg/mL (≈ 119 µM). The MIC [11] was greater than 100 µg/mL, the MIC [13] was greater than 100 µg/mL and the MIC (ESCHERICHIA COLI H560) was 25 µg/mL (≈ 29.8 µM). For the same molecule, the MIC [14] was 3.1 µg/mL (≈ 3.69 µM), the MIC (ESCHERICHIA COLI SS; 24 h) was 0.78 µg/mL (≈ 0.928 µM) and the MIC [15] was 1.56 µg/mL (≈ 1.86 µM). For the same molecule, the MIC ([16]; 24 h) was 6.2 µg/mL (≈ 7.38 µM), the MIC ([17]; ATCC8045, 24 h) was 50 µg/mL (≈ 59.5 µM) and the MIC (STR[…] EES61) was 0.2 µg/mL (≈ 0.238 µM). It also gave an MIC (STR[…] 508) of 0.39 µg/mL (≈ 0.464 µM) and an MIC [18] of 6.2 µg/mL (≈ 7.38 µM).
